PMC7416749 (Journal of genetics and genomics = Yi chuan xue bao, 2020)

B1: Jil-1 peptide at the distal site (…; residues 1102–1112) (peptide)
peptide: KREENFYGFSK

What was measured:
[1] = biological target: dP75 IBD-containing C-terminus region (residues 209–445) (Drosophila melanogaster); test: ITC
[2] = system: dP75 IBD-containing C-terminus region (residues 209–445); test: Isothermal titration calorimetry; format: binding, Drosophila; settings: ITC, 20 °C, mutant peptides 984–1004 compared with wild type

Row | Molecule | Kd [1] [µM] | effect of substitution in Jil-1 peptide 984–1004 on binding to dP75 (in words) [2]
1 | Jil-1 peptide from the proximal site (…; residues 984–1004) | 0.8 | –
2 | F992A: Jil-1 peptide 984–1004 with F992A substitution (EVQADFYGADENAPPLPLPEE; UniProt Q9V3I5 984-1004, looked up, variant F992A) | – | dramatically reduced the binding
3 | G991V: Jil-1 peptide 984–1004 with G991V substitution (EVQADFYVFDENAPPLPLPEE; UniProt Q9V3I5 984-1004, looked up, variant G991V) | – | dramatically reduced the binding
4 | F989A: Jil-1 peptide 984–1004 with F989A substitution (EVQADAYGFDENAPPLPLPEE; UniProt Q9V3I5 984-1004, looked up, variant F989A) | – | dramatically reduced the binding
5 | B1 | 120 | –
